Measured values published in patent US20140263071A1, “METHOD FOR COLLECTING METALS” (CHEMEC OY AB, priority 2011, published 2014).
Marks after values point to notes of the source that are not given here.

Tests used:
[1] = Effect of temperature on expulsion percent, Pb^2+ spiked TS 5, 1a 1.0 g/100 ml, 24 h (Example 12)
Experimental: A test solution containing 1-15 mg/l of Al^3+, Fe^2/3+, Mg^2+, Mn^2+, Ni^2+ and Zn^2+; 0.1-0.9 mg/l of Ca^2+ and Na^+; and trace amount of other Cr^3+, Co^2+, Cu^2+, Eu^3+, La^3+, Nd^3+, Y^3+, UO2^2+ and Nb^5+ cations were prepared.
Effect of temperature to selected metal expulsion per cents was tested using TS 5 with comlexation agent 1a. TS 5 (100 ml), spiked with known amounts of lead (Pb^2+) cations, was stirred with 1a (1.0 g) at selected temperature for 24 h followed by separation of 1a by filtration trough 0.2 μm syringe filter. Metal concentrations at 4° C., 7° C., 22° C., 30° C., 40° C. and 50° C. were determined by using ICP-AES analysis.

[2] = Removal of Cr^3+ from acidic solution, TS 4 diluted 1:100 (Example 19); conditions: TS 4 diluted 1:100, pH 3.67, 1.0 g agent in 50 ml, 24 h
Experimental: A test solution containing 24000 mg/l of Na^+; 50-2000 mg/l of Ca^2+, Cr^3+, K^+ and Mg^2+; and trace amount of Al^3+, Fe^2/3+, Mn^2+, Ni^2+, Sr^2+, V^4+, and Zn^2+ cations were prepared.
TS 4 was diluted to 1:100 with water, pH (3.67) of the solution was determined and sample A was taken. A part (50 ml) of the diluted solution was treated with 1a, 6d or 7a (1.0 g) for 24 h with stirring at room temperature. After filtration trough 0.2 μm syringe filter, the expulsion per for Cr(III) was determined compared to original solution A. The results of expulsion per cents of Cr^3+ and some other elements are given in Table 13.

[3] = Collection capacity (Example 10); conditions: 100 ppm starting concentration
Experimental: A water solution (110 ml) containing known amount of single cationic element or elements, typically 0.5-200 ppm, was prepared from Merch Titrisol® standard solution. After adjusting pH by using acid (e.g. HCl or HNO3) or base (e.g. NaOH) to desired initial value, sample A (10 ml) was taken followed by adding 100 mg of selected solid complexation agent. The mixture was stirred at room temperature for 24 h and sample B (10 ml) was taken. Samples A and B were filtrated separately trough 0.2 μm syringe filter and the concentration of the studied element or elements in both solution was determined by using atomic absorption spectrophotometer. The expulsion percent was determined from the concentration differences between the sample solutions A and B.
Capacity of 1a to collect selected metals were determined following the general procedure described above by using 100 ppm starting metal concentration in each experiment and 1a (100 mg) at selected pH. Amounts of removed metals from the mixture were determined by using AAS. Results are collected in table 5 and are given in mg of metal bound to 1 g of 1a.

[4] = Collection of Sc^3+ from silicate soil (Example 25); conditions: digested spiked silicate soil solution (20 ml); 1a 100 mg; 24 h
Experimental: Silicate soil (1000 g) was spiked with […] (767 mg). A sample (200 mg) was weighted to Teflon vial followed by adding concentrated HCl (9 ml) and HNO3 (3 ml) solutions. The mixture was heated under microwave for 50 min followed by adding HF (3 ml) and microvawe heating was continued until solids were dissolved totally. The resulting solution was treated with 4% H3BO3 (10 ml) with heating and sample A (5 ml) was taken. The rest of the solution (20 ml) was treated with 1a (100 mg) at room temperature for 24 h. After filtration trough 0.2 μm syringe filter Sc^3+ concentration before and after treated was determined by using AAS method to give 87% recovery of Sc^3+.

With `NCCCCCCCCCCC(O)(P(=O)(O)O)P(=O)(O)O` [Compound 1a, 11-Amino-1-hydroxyundecane-1,1-diyldiphosphonic acid] the “Expulsion [%]” value ([1]; Al^3+, 4° C.) was 6.3%, the “Expulsion [%]” value ([1]; Al^3+, 7° C.) was 15.4% and the “Expulsion [%]” value ([1]; Al^3+, 22° C.) was 18.5%. For the same compound, the “Expulsion [%]” value ([1]; Al^3+, 30° C.) was 14.6%, the “Expulsion [%]” value ([1]; Al^3+, 40° C.) was 98.0% and the “Expulsion [%]” value ([1]; Al^3+, 50° C.) was 97.6%. The “Expulsion [%]” value ([1]; Ca^2+, 4° C.) was 0.0%, the “Expulsion [%]” value ([1]; Ca^2+, 7° C.) was 0.0% and the “Expulsion [%]” value ([1]; Ca^2+, 22° C.) was 9.4%. The “Expulsion [%]” value ([1]; Ca^2+, 30° C.) was 10.0%, the “Expulsion [%]” value ([1]; Ca^2+, 40° C.) was 63.5% and the “Expulsion [%]” value ([1]; Ca^2+, 50° C.) was 71.2%. For the same compound, the “Expulsion [%]” value ([1]; Cd^2+, 4° C.) was 16.1%, the “Expulsion [%]” value ([1]; Cd^2+, 7° C.) was 18.3% and the “Expulsion [%]” value ([1]; Cd^2+, 22° C.) was 34.5%. For the same compound, the “Expulsion [%]” value ([1]; Cd^2+, 30° C.) was 41.3%, the “Expulsion [%]” value ([1]; Cd^2+, 40° C.) was 99.0% and the “Expulsion [%]” value ([1]; Cd^2+, 50° C.) was 98.9%. For the same compound, the “Expulsion [%]” value ([1]; Fe^2/3+, 4° C.) was 0.0%, the “Expulsion [%]” value ([1]; Fe^2/3+, 7° C.) was 0.7% and the “Expulsion [%]” value ([1]; Fe^2/3+, 22° C.) was 5.2%. The “Expulsion [%]” value ([1]; Fe^2/3+, 30° C.) was 4.4%, the “Expulsion [%]” value ([1]; Fe^2/3+, 40° C.) was 99.3% and the “Expulsion [%]” value ([1]; Fe^2/3+, 50° C.) was ≥ 99.3^1%. For the same compound, the “Expulsion [%]” value ([1]; Mg^2+, 4° C.) was 0.7%, the “Expulsion [%]” value ([1]; Mg^2+, 7° C.) was 0.7% and the “Expulsion [%]” value ([1]; Mg^2+, 22° C.) was 7.1%. The “Expulsion [%]” value ([1]; Mg^2+, 30° C.) was 5.5%, the “Expulsion [%]” value ([1]; Mg^2+, 40° C.) was ≥ 97.7^1% and the “Expulsion [%]” value ([1]; Mg^2+, 50° C.) was ≥ 97.7^1%. For the same compound, the “Expulsion [%]” value ([1]; Mn^2+, 4° C.) was 4.6%, the “Expulsion [%]” value ([1]; Mn^2+, 7° C.) was 5.3% and the “Expulsion [%]” value ([1]; Mn^2+, 22° C.) was 14.7%. The “Expulsion [%]” value ([1]; Mn^2+, 30° C.) was 13.3%, the “Expulsion [%]” value ([1]; Mn^2+, 40° C.) was ≥ 99.7^1% and the “Expulsion [%]” value ([1]; Mn^2+, 50° C.) was ≥ 99.7^1%. The “Expulsion [%]” value ([1]; Ni^2+, 4° C.) was 0.9%, the “Expulsion [%]” value ([1]; Ni^2+, 7° C.) was 1.4% and the “Expulsion [%]” value ([1]; Ni^2+, 22° C.) was 4.6%. The “Expulsion [%]” value ([1]; Ni^2+, 30° C.) was 4.6%, the “Expulsion [%]” value ([1]; Ni^2+, 40° C.) was 97.1% and the “Expulsion [%]” value ([1]; Ni^2+, 50° C.) was 95.2%. The “Expulsion [%]” value ([1]; Pb^2+, 4° C.) was ≥ 98.1^1%, the “Expulsion [%]” value ([1]; Pb^2+, 7° C.) was ≥ 98.1^1% and the “Expulsion [%]” value ([1]; Pb^2+, 22° C.) was ≥ 98.1^1%. The “Expulsion [%]” value ([1]; Pb^2+, 30° C.) was ≥ 98.1^1%, the “Expulsion [%]” value ([1]; Pb^2+, 40° C.) was ≥ 98.1^1% and the “Expulsion [%]” value ([1]; Pb^2+, 50° C.) was ≥ 98.1^1%. For the same compound, the “Expulsion [%]” value ([1]; Zn^2+, 4° C.) was 9.0%, the “Expulsion [%]” value ([1]; Zn^2+, 7° C.) was 10.4% and the “Expulsion [%]” value ([1]; Zn^2+, 22° C.) was 22.9%. The “Expulsion [%]” value ([1]; Zn^2+, 30° C.) was 25.7%, the “Expulsion [%]” value ([1]; Zn^2+, 40° C.) was 97.6% and the “Expulsion [%]” value ([1]; Zn^2+, 50° C.) was 98.0%. The “Expulsion [%] Ca^2+” value ([2]; Ca^2+) was 67%, the “Expulsion [%] Cr^3+” value ([2]; Cr^3+) was 91% and the “Expulsion [%] K^+” value ([2]; K^+) was 36%. The “Expulsion [%] Mg^2+” value ([2]; Mg^2+) was 74%, the “Expulsion [%] Na^+” value ([2]; Na^+) was 14% and the “Expulsion [%] Zn^2+” value ([2]; Zn^2+) was >39^1) %. The “Capacity” value ([3]; Ag^+, pH 2.5) was 94.6 mg/g, the “Capacity” value ([3]; Au^3+, pH 4.0) was 19.0 mg/g and the “Capacity” value ([3]; Ca^2+, pH 4.0) was 50.9 mg/g. The “Capacity” value ([3]; Cd^2+, pH 4.0) was 74.1 mg/g, the “Capacity” value ([3]; Co^2+, pH 4.5) was 85.5 mg/g and the “Capacity” value ([3]; Cr^3+, pH 3.5) was 9.9 mg/g. The “Capacity” value ([3]; Cu^2+, pH 4.0) was 61.6 mg/g, the “Capacity” value ([3]; Fe^2+, pH 3.0) was 82.7 mg/g and the “Capacity” value ([3]; Fe^3+, pH 3.0) was 15.2 mg/g. For the same compound, the “Capacity” value ([3]; Mo^6+, pH 9.1) was 97.2 mg/g, the “Capacity” value ([3]; Ni^2+, pH 4.0) was 13.1 mg/g and the “Capacity” value ([3]; Pb^2+, pH 4.0) was 85.6 mg/g. The “Capacity [mg/g]” value ([3]; Sc^3+, pH 2.0) was 16.9^1) mg/g, the “Capacity” value ([3]; Zn^2+, pH 4.0) was 70.9 mg/g and the “recovery of Sc^3+” value [4] was 87%.
